Test results: patent EP2949220A1, “Nutraceutic supplement for bees families and process for its administration” (SC Teso Spec SRL, priority 2014, dated 2015)

Columns and labels:
[1] = test system: lipid peroxides (as malondialdehide); assay: Oxidative stress in midguts of bees fed bee candy (lipid peroxides as MDA, thiobarbituric acid); format: in vivo, honey bees; conditions: 3 days, control = 100%, 4.3 µg/g maltol, 0.41 µg/g p-coumaric acid, 0.45 µg/g caffeic acid where present (mixture row prints µg/l)
Description: (§1) Optimization of the ratio of hydroxycinnamic acids, p-coumaric and caffeic, and maltol, was obtained by using experiments designed according to response surface technique, using the Software Design-Expert® v. 9.0 (Stat-Ease, Minneapolis, MN, USA). Two bioassays were used, wherein the effect of different combinations of maltol and hydroxycinnamic acids, p-coumaric and caffeic, were determined, on fructophilic lactobacteria growth and on oxidative stress and on the induction of CYP9Q, enzyme from cytochrome P450 monooxigenase class, with key role in defense systems of bees (Mao et al., 2013, PNAS, 110: 8842-8846). […] After three days bees midguts were taken by dissection, frozen in liquid nitrogen and stored at -80 ° C, to extract total RNA for quantitative RT-PCR analysis of CYP9Q3 expression and for the determination of lipid peroxides (as malondialdehide) as markers of oxidative stress. RNA was extracted from frozen abdomens by TRIzol method (Invitrogen, Thermo Fisher Scientific, Waltham, MA, USA), treated with DNAse (Ambion® protocol, Thermo Fisher Scientific) and used for the quantitative analysis of the expression CYP9Q by RT-PCR, as described by Mao et al., 2011 (PNAS, 108, 12657-12662). Lipid peroxides were determined as malondialdehid ? , with tiobarbituric acid (Rael et al., 2004, J. Biochem. Mol. Biol, 3, 749-752).

[2] = test system: Lactobacillus kunkeei DSM 12361; assay: Growth of fructophilic lactobacteria on FYP broth with glucose-fructose syrup; format: cell-based; conditions: FYP medium with glucose-fructose syrup; 21.5 mg/l maltol, 2.05 mg/l p-coumaric acid, 2.25 mg/l caffeic acid where present
Description: Optimization of the ratio of hydroxycinnamic acids, p-coumaric and caffeic, and maltol, was obtained by using experiments designed according to response surface technique, using the Software Design-Expert® v. 9.0 (Stat-Ease, Minneapolis, MN, USA). Two bioassays were used, wherein the effect of different combinations of maltol and hydroxycinnamic acids, p-coumaric and caffeic, were determined, on fructophilic lactobacteria growth and on oxidative stress and on the induction of CYP9Q, enzyme from cytochrome P450 monooxigenase class, with key role in defense systems of bees (Mao et al., 2013, PNAS, 110: 8842-8846). […] The ratio 4.1 parts p-coumaric acid, 4.5 parts caffeic acid and 43 parts maltol, determined as being optimal in terms L. kunkeei development enhancement, was re-tested in laboratory conditions, using 400 g/l glucose-fructose syrup (Isosugar 031™, Tate and Lyle, London, United Kingdom, 74.8% dry matter, 50.2% of which is fructose), instead of 300 g/l of fructose on FYP broth. […]

CYP9Q = CYP9Q induction in bees fed bee candy (quantitative RT-PCR); format: in vivo, honey bees; conditions: 3 days, control = 100%, 4.3 µg/g maltol, 0.41 µg/g p-coumaric acid, 0.45 µg/g caffeic acid where present (mixture row prints µg/l)
Description: as §1

## Cc1occc(=O)c1O [maltol, 3-Hydroxy-2-methyl-4H-piran-4-one]
[1]
  Oxidative stress MDA (%): 123,7%
[2]
  Culture development (% control): 76.8 % control
  Lactic acid production (% control): 67,9 % control
CYP9Q
  Inducing CYP9Q (%): 102.9%
